Laboratory results taken from ChEMBL document CHEMBL1201862, “PubChem BioAssay data set” (2004).
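Test compounds were applied to cells in 96-well plates for 48 hours at 5 doses. Here, GI50 denotes the concentration required for 50% inhibition of growth.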 Active and inactive are the calls of the source. Cut-off read from the data, not from the text of the source: active = GI50 up to about 1.1 µM and inactive = higher.

How the values were obtained:
Assay in all cases: NCI tumour cell line growth inhibition, 48 h
[1] = system: 786-0
[2] = system: A549
[3] = system: ACHN
[4] = system: CAKI-1
[5] = system: CCRF-CEM
[6] = system: COLO 205
[7] = system: DLD-1
[8] = system: DMS-114
[9] = system: EKVX
[10] = system: HCC 2998
[11] = system: HCT-15
[12] = system: HOP-92
[13] = system: HT-29
[14] = system: IGROV-1
[15] = system: K562
[16] = system: KM-20L2
[17] = system: KM12
[18] = system: LXFL 529
[19] = system: M14
[20] = system: M19-MEL
[21] = system: MOLT-4
[22] = system: Malme-3M
[23] = system: NCI-H23
[24] = system: NCI-H522
[25] = system: OVCAR-3
[26] = system: OVCAR-4
[27] = system: OVCAR-5
[28] = system: OVCAR-8
[29] = system: RXF 393
[30] = system: SF-268
[31] = system: SF-295
[32] = system: SF-539
[33] = system: SK-MEL-28
[34] = system: SK-MEL-2
[35] = system: SK-MEL-5
[36] = system: SK-OV-3
[37] = system: SN12C
[38] = system: SNB-19
[39] = system: SNB-78
[40] = system: SR
[41] = system: SW-620
[42] = system: TK-10
[43] = system: U-251
[44] = system: UACC-62
[45] = system: UO-31
[46] = system: XF498
[47] = system: DMS-273
[48] = system: HCT-116
[49] = system: HOP-62
[50] = system: LOX IMVI
[51] = system: NCI-H226
[52] = system: NCI-H460
[53] = system: SNB-75
[54] = system: A498
[55] = system: HL-60
[56] = system: HOP-18
[57] = system: RPMI-8226
[58] = system: UACC-257

COc1cccc(/C=C(\NC(C)=O)c2nc3cc(Cl)ccc3[nH]2)c1
GI50 [1]: > 100 µM (inactive) | GI50 [2]: > 100 µM (inactive) | GI50 [3]: > 100 µM (inactive) | GI50 [4]: > 100 µM (inactive) | GI50 [5]: > 100 µM (inactive) | GI50 [6]: > 100 µM (inactive) | GI50 [7]: > 100 µM (inactive) | GI50 [8]: > 100 µM (inactive) | GI50 [9]: > 100 µM (inactive) | GI50 [10]: > 100 µM (inactive) | GI50 [11]: > 100 µM | GI50 [12]: 59.3 µM (inactive) | GI50 [13]: > 100 µM (inactive) | GI50 [14]: > 100 µM (inactive) | GI50 [15]: > 100 µM (inactive) | GI50 [16]: > 100 µM (inactive) | GI50 [17]: > 100 µM (inactive) | GI50 [18]: > 100 µM (inactive) | GI50 [19]: > 100 µM (inactive) | GI50 [20]: > 100 µM (inactive) | GI50 [21]: > 100 µM (inactive) | GI50 [22]: > 100 µM (inactive) | GI50 [23]: > 100 µM (inactive) | GI50 [24]: > 100 µM (inactive) | GI50 [25]: > 100 µM (inactive) | GI50 [26]: > 100 µM (inactive) | GI50 [27]: > 100 µM (inactive) | GI50 [28]: > 100 µM (inactive) | GI50 [29]: > 100 µM (inactive) | GI50 [30]: > 100 µM (inactive) | GI50 [31]: > 100 µM (inactive) | GI50 [32]: > 100 µM (inactive) | GI50 [33]: > 100 µM (inactive) | GI50 [34]: > 100 µM (inactive) | GI50 [35]: > 100 µM (inactive) | GI50 [36]: > 100 µM (inactive) | GI50 [37]: > 100 µM (inactive) | GI50 [38]: > 100 µM (inactive) | GI50 [39]: > 100 µM (inactive) | GI50 [40]: > 100 µM (inactive) | GI50 [41]: > 100 µM (inactive) | GI50 [42]: > 100 µM (inactive) | GI50 [43]: > 100 µM (inactive) | GI50 [44]: > 100 µM (inactive) | GI50 [45]: > 100 µM (inactive) | GI50 [46]: > 100 µM (inactive)

O=c1c2cccnc2ncn1CCCN1CCCC1
GI50 [1]: > 100 µM (inactive) | GI50 [2]: > 100 µM (inactive) | GI50 [3]: > 100 µM (inactive) | GI50 [4]: > 100 µM (inactive) | GI50 [5]: > 100 µM (inactive) | GI50 [6]: 97.3 µM (inactive) | GI50 [7]: > 100 µM (inactive) | GI50 [8]: 86.1 µM (inactive) | GI50 [47]: > 100 µM (inactive) | GI50 [9]: > 100 µM (inactive) | GI50 [48]: > 100 µM (inactive) | GI50 [49]: > 100 µM (inactive) | GI50 [12]: > 100 µM (inactive) | GI50 [13]: > 100 µM (inactive) | GI50 [14]: > 100 µM (inactive) | GI50 [15]: > 100 µM (inactive) | GI50 [17]: > 100 µM (inactive) | GI50 [50]: > 100 µM (inactive) | GI50 [19]: > 100 µM (inactive) | GI50 [20]: > 100 µM (inactive) | GI50 [21]: > 100 µM (inactive) | GI50 [51]: 91 µM (inactive) | GI50 [23]: > 100 µM (inactive) | GI50 [52]: > 100 µM (inactive) | GI50 [24]: > 100 µM (inactive) | GI50 [25]: > 100 µM (inactive) | GI50 [26]: > 100 µM (inactive) | GI50 [27]: > 100 µM (inactive) | GI50 [28]: > 100 µM (inactive) | GI50 [29]: > 100 µM (inactive) | GI50 [30]: > 100 µM (inactive) | GI50 [31]: > 100 µM (inactive) | GI50 [32]: > 100 µM (inactive) | GI50 [33]: > 10 µM (inactive) | GI50 [34]: > 100 µM (inactive) | GI50 [35]: > 100 µM (inactive) | GI50 [36]: > 100 µM (inactive) | GI50 [37]: > 100 µM (inactive) | GI50 [38]: > 100 µM (inactive) | GI50 [53]: > 100 µM (inactive) | GI50 [39]: > 100 µM (inactive) | GI50 [40]: > 100 µM (inactive) | GI50 [41]: > 100 µM (inactive) | GI50 [42]: > 100 µM (inactive) | GI50 [43]: > 100 µM (inactive) | GI50 [44]: > 100 µM (inactive) | GI50 [45]: > 100 µM (inactive) | GI50 [46]: > 100 µM (inactive)

CC12CCC3(C1)[C@H](CC2=O)C[C@@H](OC(=O)c1ccccc1)C1C(C)(CO)CCC[C@@]13C (stereo not given in full)
GI50 [1]: 1.82 µM (inactive) | GI50 [54]: 3.12 µM (inactive) | GI50 [2]: 3.46 µM (inactive) | GI50 [3]: 0.342 µM (active) | GI50 [4]: 0.861 µM (active) | GI50 [5]: 2.29 µM (inactive) | GI50 [6]: 4.35 µM (inactive) | GI50 [7]: 2.48 µM (inactive) | GI50 [8]: 0.156 µM (active) | GI50 [47]: 0.625 µM (active) | GI50 [9]: 3.96 µM (inactive) | GI50 [10]: 1.97 µM (inactive) | GI50 [48]: 2.22 µM (inactive) | GI50 [11]: 1.5 µM | GI50 [55]: 0.327 µM (active) | GI50 [56]: 26.7 µM (inactive) | GI50 [49]: 5.41 µM (inactive) | GI50 [12]: 3.65 µM (inactive) | GI50 [13]: 3.56 µM (inactive) | GI50 [14]: 6.49 µM (inactive) | GI50 [15]: 0.416 µM (active) | GI50 [16]: 1.82 µM (inactive) | GI50 [17]: 2.9 µM (inactive) | GI50 [50]: 2.17 µM (inactive) | GI50 [18]: 0.6 µM (active) | GI50 [19]: 3.61 µM (inactive) | GI50 [20]: 3.4 µM (inactive) | GI50 [21]: 1.54 µM (inactive) | GI50 [22]: 9.42 µM (inactive) | GI50 [51]: 1.6 µM (inactive) | GI50 [23]: 0.681 µM (active) | GI50 [52]: 1.05 µM (active) | GI50 [24]: 2.02 µM (inactive) | GI50 [25]: 0.24 µM (active) | GI50 [26]: 1.44 µM (inactive) | GI50 [27]: 2 µM (inactive) | GI50 [28]: 3.13 µM (inactive) | GI50 [57]: 0.746 µM (active) | GI50 [29]: 1.71 µM (inactive) | GI50 [30]: 5.11 µM (inactive) | GI50 [31]: 0.322 µM (active) | GI50 [32]: 6.08 µM (inactive) | GI50 [33]: 13.3 µM (inactive) | GI50 [34]: 8.32 µM (inactive) | GI50 [35]: < 0.01 µM (active) | GI50 [36]: 17.1 µM (inactive) | GI50 [37]: 4.35 µM (inactive) | GI50 [38]: 5.86 µM (inactive) | GI50 [53]: 9.14 µM (inactive) | GI50 [39]: 34 µM (inactive) | GI50 [41]: 2.37 µM (inactive) | GI50 [42]: > 21.9 µM (inactive) | GI50 [43]: 2.38 µM (inactive) | GI50 [58]: 0.149 µM (active) | GI50 [44]: 0.0288 µM (active) | GI50 [45]: 4.15 µM (inactive)
